Consider two compounds from patent US10213394B1, “Composition and method for treating neurological disease” (Osmotica Kereskedelmi és Szolgáltató Korlátolt Felelõsségû …, priority 2018, dated 2019).

SMILES strings stand for the structures. Structures can show the parent of a compound that is named as a salt.

The conditions of data set [1]: cited from earlier work.
The conditions of data set [2]: cited from earlier work. This is another data set of the same source.
In another data set the test system is plasma proteins. To be noted: concentration range of 0.1 to 2.0 μg/mL; cited from earlier work.
Data set [3] can be described thus: Solubility of amantadine HCl in water. The format is physicochemical. To be noted: 160 mg, 240 mg and 320 mg of amantadine HCl.

For `NC12CC3CC(CC(C3)C1)C2` [Amantadine, amantadine], the average elimination half-life result in data set [1] (patients on chronic maintenance hemodialysis) is “eight days”. Further, the apparent plasma clearance in data set [1] (single dose 25 to 75 mg, 7 healthy elderly male volunteers, range 0.06 to 0.17) is 1.67 ± 0.67 mL/min/kg. Moreover, the half-life in data set [1] (single dose 25 to 75 mg, 7 healthy elderly male volunteers, range 20 to 41) was 29 ± 7 h. Also, the volume of distribution in data set [2] (after intravenous administration) was 3 to 8 L/kg. The “reduction of renal clearance of amantadine” value in data set [2] (coadministration of quinine or quinidine) is recorded as “about 30%”. In data set [2] (in vivo), the “administered dose excreted unchanged in urine” value is “approximately 85%” and the “metabolism as share of total clearance” value is given as 5-15%. Also, the “bound to plasma proteins” value in the data set on plasma proteins is reported as 67%.
With `NC12CC3CC(CC(C3)C1)C2` [amantadine HCl, Amantadine Hydrochloride], the solubility in water result in data set [3] is recorded as “soluble in 250 mL water”.
